According to patent publication US9981942B2, “Piperidine derivatives having multimodal activity against pain” (LABORATORIOS DEL DR. ESTEVE S.A., priority 2013, dated 2018):

System: σ1 receptor and the μ-opiod receptor
Assay: μ and σ1 dual binding: combined class from the Ki of both radioligand assays
Set-up: species or system human; key to μ and σ1 dual binding: +: Both Ki-μ and Ki-σ1>=500 nM; ++: One Ki<500 nM while the other Ki is >=500 nM; +++: Both Ki-μ and Ki-σ1<500 nM; ++++: Both Ki-μ and Ki-σ1<100 nM
Conditions: transfected HEK-293 membranes (σ1), transfected CHO-K1 cell membranes (μ); for μ and σ1 dual binding: combined class for Ki-μ and Ki-σ1
In short: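 Classes combine both Ki values, split at 500 nM and 100 nM. Human μ-opioid binding used 1 nM [3H]-DAMGO on CHO-K1 membranes (27 °C, 60 min, pH 7.4, naloxone 10 μM for NSB); human σ1 used 5 nM [3H](+)-pentazocine on HEK-293 membranes (37 °C, 120 min, pH 8, haloperidol 10 μM for NSB).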

SMILES | μ and σ1 dual binding | Ki range for both μ and σ1 (dual-binding class) [nM]
CCS(=O)(=O)Nc1cccc(C2CCN(Cc3cn(Cc4ccccn4)nn3)CC2)c1 [Example 112, N-(3-(1-((1-(pyridin-2-ylmethyl)-1H-1,2,3-triazol-4-yl)methyl)piperidin-4-yl)phenyl)ethanesulfonamide] | ++ | –
COc1cccc(Cn2cc(CN3CCC(c4cccc(NS(=O)(=O)C(C)C)c4)CC3)nn2)n1 [Example 113] | – | < 100
CC(C)S(=O)(=O)Nc1cccc(C2CCN(Cc3cn(Cc4ncccc4F)nn3)CC2)c1 [Example 114, N-(3-(1-((1-((3-fluoropyridin-2-yl)methyl)-1H-1,2,3-triazol-4-yl)methyl)piperidin-4-yl)phenyl)propane-2-sulfonamide] | – | < 500
CC(C)S(=O)(=O)Nc1cccc(C2CCN(Cc3cn(Cc4cccc(F)n4)nn3)CC2)c1 [Example 116, N-(3-(1-((1-((6-fluoropyridin-2-yl)methyl)-1H-1,2,3-triazol-4-yl)methyl)piperidin-4-yl)phenyl)propane-2-sulfonamide] | – | < 500
CC(C)S(=O)(=O)Nc1cccc(C2CCN(Cc3cn(Cc4cccc(C(F)(F)F)n4)nn3)CC2)c1 [Example 117, N-(3-(1-((1-((6-(trifluoromethyl)pyridin-2-yl)methyl)-1H-1,2,3-triazol-4-yl)methyl)piperidin-4-yl)phenyl)propane-2-sulfonamide] | ++ | –
Cc1cccc(Cn2cc(CN3CCC(c4cccc(NS(=O)(=O)C(C)C)c4)CC3)nn2)n1 [Example 118, N-(3-(1-((1-((6-methylpyridin-2-yl)methyl)-1H-1,2,3-triazol-4-yl)methyl)piperidin-4-yl)phenyl)propane-2-sulfonamide] | ++ | –
CS(=O)(=O)Nc1cccc(C2CCN(Cc3nnn4c3-c3ccccc3C4)CC2)c1 [Example 119, N-(3-(1-((8H-[1,2,3]triazolo[5,1-a]isoindol-3-yl)methyl)piperidin-4-yl)phenyl)methanesulfonamide] | ++ | –
Oc1cccc(C2CCN(Cc3nnn4c3-c3ccccc3C4)CC2)c1 [Example 120, 3-(1-((8H-[1,2,3]triazolo[5,1-a]isoindol-3-yl)methyl)piperidin-4-yl)phenol] | ++ | –
CC(C)S(=O)(=O)Nc1cccc(C2CCN(Cc3cn(Cc4ncccc4C(F)(F)F)nn3)CC2)c1 [Example 121, N-(3-(1-((1-((3-(trifluoromethyl)pyridin-2-yl)methyl)-1H-1,2,3-triazol-4-yl)methyl)piperidin-4-yl)phenyl)propane-2-sulfonamide] | ++ | –
CC(C)S(=O)(=O)Nc1cccc(C2CCN(Cc3cn(Cc4ccc(C(F)(F)F)cn4)nn3)CC2)c1 [Example 122, N-(3-(1-((1-((5-(trifluoromethyl)pyridin-2-yl)methyl)-1H-1,2,3-triazol-4-yl)methyl)piperidin-4-yl)phenyl)propane-2-sulfonamide] | ++ | –
CC(C)S(=O)(=O)Nc1cccc([C@@H]2CCN(Cc3cn(Cc4ccccc4)nn3)C[C@@H]2O)c1 [Example 123, N-(3-((3R,4S)-1-((1-benzyl-1H-1,2,3-triazol-4-yl)methyl)-3-hydroxypiperidin-4-yl)phenyl)propane-2-sulfonamide] | ++ | –
CC(C)S(=O)(=O)Nc1cccc(C2CCN(Cc3cn(Cc4ccc(C(F)(F)F)nc4)nn3)CC2)c1 [Example 124, N-(3-(1-((1-((6-(trifluoromethyl)pyridin-3-yl)methyl)-1H-1,2,3-triazol-4-yl)methyl)piperidin-4-yl)phenyl)propane-2-sulfonamide] | ++ | –
CC(C)S(=O)(=O)Nc1cccc([C@@H]2CCN(Cc3cn(Cc4ccccn4)nn3)C[C@@H]2O)c1 [Example 125, N-(3-((3R,4S)-3-hydroxy-1-((1-(pyridin-2-ylmethyl)-1H-1,2,3-triazol-4-yl)methyl)piperidin-4-yl)phenyl)propane-2-sulfonamide] | ++ | –
CC(C)S(=O)(=O)Nc1cccc(C2CCN(Cc3cn(Cc4cc(N=[N+]=[N-])ccn4)nn3)CC2)c1 [Example 128] | ++ | –
